Source: patent publication US20080318778A1, “Agriculture Composition Method Comprising Nitric Oxide Generating Agent” (University of Sheffield, priority 2004, published 2008)

What was measured:
[1] = test system: bean cv. Orfeo INIA; assay: Weekly spraying of field-grown bean plants, effect on yield (pods/plant, seed/plant); assay type: in vivo, Phaseolus vulgaris; settings: sprayed every week for two months until pod setting, NaNO2 at 200 μM, AsA at 100 μM, mixture AsA/NaNO2 at 100 μM/200 μM, control sprayed with water
Method: Plants of bean cv Orfeo INIA were grown in rows 80 cm apart and at a density of 10 plants/m, during the 2001 Southern Spring in the Experimental Station of the Univ. of Chile, Santiago. Plants were irrigated twice a week with abundant water in order to avoid water stress at any developmental stage. Phytosanitary, weed and fertilizer conditions of the plant was controlled as recommended for commercial crop.
One month old plants were sprayed every week for a two month period, until pod setting with: NaNO2 at 200 μM; AsA at 100 μM and a mixture of AsA/NaNO2 at […]. Control plants were sprayed with water.

[2] = test system: grapevine cv Sultana; assay: Spraying of dormant grapevine cuttings, onset of bud burst in growth chamber; assay type: in vivo, Vitis vinifera L; settings: H2CN2 2.5% spray
Method: Cuttings of grapevine cv Sultana with three dormant buds each were collected from a vineyard located at Antumapu Experimental Station, University of Chile, by the end of May 2003 (Autumn South Hemisphere). After fungicide treatment, they were kept wrapped up with plastic for one week in a dark and cold chamber at 7° C. day/night. […] The number of buds burst was registered every day after the first bud was detected starting to growth. This moment was considered as the initiation of the bud burst.

SMILES	yield (Number of pods/plant and Number of seed/plant) [1]	strength of effect on bud burst, AsA/NaNO2 compared with cyanamide [2]
O=NO [NaNO2, sodium nitrite]	neither AsA or NaNO2 alone had any effect on yield	
N#CN [cyanamide]		The effect was not as strong as with cyanamide
O=C1O[C@H]([C@@H](O)CO)C(O)=C1O [AsA, ascorbic acid]	neither AsA or NaNO2 alone had any effect on yield	
